Results as given in patent publication US20240425478A1, “CYCLOPENTYLPYRAZOLE CDK2 INHIBITORS” (Genentech, Inc., priority 2021, published 2024).
Where “and” joins values, the source holds several entries; their conditions need not be identical. Identical values can stand only once. Like-named read-outs stand apart in the source and are kept apart here. Values belong to the molecule of their own block, whether it stands above or below them.

Columns and labels:
[1] = target: T1, Cyclin Dependent Kinase 1/Cyclin A2 (CDK1-cycA2) (Homo sapiens, UniProt P06493); assay: CDK1-cycA2 TR-FRET (Lance) enzyme assay; assay type: biochemical; conditions: for Ki: Table O, enzymatic assay; for FS CDK1/CDK2: fold selectivity, enzymatic Ki ratio
T1 construct: purchased ProQinase 0134-0054-1
T1 sequence (P06493 whole entry): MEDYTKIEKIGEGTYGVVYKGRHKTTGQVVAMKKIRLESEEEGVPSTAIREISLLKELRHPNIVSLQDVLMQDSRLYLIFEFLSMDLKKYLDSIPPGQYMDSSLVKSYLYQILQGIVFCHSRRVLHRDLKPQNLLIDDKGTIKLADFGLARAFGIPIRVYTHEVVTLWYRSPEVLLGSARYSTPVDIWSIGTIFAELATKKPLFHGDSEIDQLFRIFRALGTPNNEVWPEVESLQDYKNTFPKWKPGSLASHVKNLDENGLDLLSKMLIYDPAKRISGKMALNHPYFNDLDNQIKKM
T1 sequence (P20248 whole entry partner): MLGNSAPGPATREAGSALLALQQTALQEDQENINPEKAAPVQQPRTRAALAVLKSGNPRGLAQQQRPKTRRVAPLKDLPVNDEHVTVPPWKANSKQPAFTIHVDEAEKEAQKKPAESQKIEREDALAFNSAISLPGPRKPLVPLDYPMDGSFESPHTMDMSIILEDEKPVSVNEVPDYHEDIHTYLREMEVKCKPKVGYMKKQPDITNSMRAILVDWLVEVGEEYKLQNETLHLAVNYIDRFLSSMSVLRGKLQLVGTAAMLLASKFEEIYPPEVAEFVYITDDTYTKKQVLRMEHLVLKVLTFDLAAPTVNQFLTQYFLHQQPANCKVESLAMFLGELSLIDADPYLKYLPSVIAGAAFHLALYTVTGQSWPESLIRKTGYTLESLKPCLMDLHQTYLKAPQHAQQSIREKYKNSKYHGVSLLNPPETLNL
Outline: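 Human CDK1/cyclin A2 pre-incubated 30 min with compound dose responses in 50 mM HEPES pH 7.5, 10 mM MgCl2, 2 mM TCEP, 0.05% BGG, 0.01% Brij 35. Reaction quenched with EDTA (15 mM final); TR-FRET readout using Eu-anti-phospho-4E-BP1, acceptor/donor ratio. Inhibition constants from Morrison equation.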

[2] = target: T2, Cyclin Dependent Kinase 2/Cyclin E1 (CDK2-cycE1) (Homo sapiens, UniProt P24941); assay: CDK2-cycE1 TR-FRET (LANCE) enzyme assay; assay type: biochemical; conditions: for FS CDK1/CDK2 / FS CDK4/CDK2: fold selectivity; for FS CDK1/CDK2: enzymatic CDK1 Ki over CDK2 Ki; for FS CDK4/CDK2: enzymatic CDK4 Ki over CDK2 Ki; for CDK2 Ki fold change in potency versus Comparator D / CDK2 Ki fold change in potency versus Comparator E: in brackets after CDK2 Ki
T2 construct: purchased ProQinase 0050-0055-1
Outline: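 Compound dose responses pre-incubated 30 min with CDK2-cycE1 in 50 mM HEPES pH 7.5, 10 mM MgCl2, 2 mM TCEP, 0.05% BGG, 0.01% Brij 35. Reaction quenched with EDTA (15 mM final), phospho-MBP detected by Eu-anti-phospho-MBP TR-FRET (acceptor/donor ratio). Inhibition constants from Morrison equation.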

[3] = tested on: HCT116 cells; assay: p-H3 HCT-116 mitotic release cell proliferation assay (cellular CDK1); assay type: cell-based; conditions: for IC50: Homo sapiens, HCT-116, Table O, cellular assay, read-out: CDK1 p-H3 IC50
Outline: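 HCT116 cells arrested 16 h with 500 nM nocodazole, then exposed to compound for 4 h at 37 °C (0.1% DMSO). Lysates read by HTRF/FRET with donor and acceptor phospho-Histone H3 (Ser10) antibodies, ≥2 h at room temperature; CDK1 inhibition seen as loss of p-H3 on mitotic release.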

[4] = tested on: SKOV-3 (ATCC HTB-77); assay: SKOV-3 EdU incorporation cell proliferation assay (CDK4/6-dependent); assay type: cell-based; conditions: for IC50: Homo sapiens, cellular assay, read-out: CDK4/6 SKOV-3 IC50; for FS SKOV-3/OVISE: fold selectivity
Outline: (§1)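 Cells in RPMI/10% FBS dosed with compound (0.5% DMSO final) for 16 h at 37 °C, 5% CO2, then EdU 0.5 μM final for 8 h before fixation and imaging. IC50 from 4-parameter logistic fit of EdU-positive cell fraction versus dose.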

[5] = tested on: OVISE (JCRB1043, CCNE1-amplified); assay: OVISE EdU incorporation cell proliferation assay (CDK2-dependent); assay type: cell-based; conditions: for IC50 / FS SKOV-3/OVISE / FS p-H3/OVISE: Table O; for IC50: cellular assay, read-out: CDK2 OVISE IC50; for FS SKOV-3/OVISE / FS p-H3/OVISE: fold selectivity; for FS SKOV-3/OVISE: cellular SKOV-3 IC50 over OVISE IC50; for FS p-H3/OVISE: cellular p-H3 IC50 over OVISE IC50; for CDK2 OVISE IC50 fold change in potency versus Comparator D: Table R; for CDK2 OVISE IC50 fold change in potency versus Comparator D / CDK2 OVISE IC50 fold change in potency versus Comparator E: in brackets after OVISE IC50; for CDK2 OVISE IC50 fold change in potency versus Comparator E: Table S
Outline: as §1

[6] = target: T3, Cyclin Dependent Kinase 4/Cyclin D3 (CDK4-cycD3) (Homo sapiens, UniProt P11802); assay: CDK4-cycD3 TR-FRET (LANCE) enzyme assay; assay type: biochemical; conditions: for Ki: Table O, enzymatic assay; for FS CDK4/CDK2: fold selectivity, enzymatic Ki ratio
T3 construct: purchased Carna Biosciences 04-105
T3 sequence (P11802 whole entry): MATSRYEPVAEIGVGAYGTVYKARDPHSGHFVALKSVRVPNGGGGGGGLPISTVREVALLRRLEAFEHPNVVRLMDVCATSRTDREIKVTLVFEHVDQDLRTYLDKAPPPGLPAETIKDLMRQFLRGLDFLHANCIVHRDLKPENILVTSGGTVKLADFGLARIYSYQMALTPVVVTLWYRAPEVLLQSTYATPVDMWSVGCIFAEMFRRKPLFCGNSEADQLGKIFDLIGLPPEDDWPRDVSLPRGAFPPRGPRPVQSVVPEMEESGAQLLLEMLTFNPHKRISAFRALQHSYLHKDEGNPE
T3 sequence (P30281 whole entry partner): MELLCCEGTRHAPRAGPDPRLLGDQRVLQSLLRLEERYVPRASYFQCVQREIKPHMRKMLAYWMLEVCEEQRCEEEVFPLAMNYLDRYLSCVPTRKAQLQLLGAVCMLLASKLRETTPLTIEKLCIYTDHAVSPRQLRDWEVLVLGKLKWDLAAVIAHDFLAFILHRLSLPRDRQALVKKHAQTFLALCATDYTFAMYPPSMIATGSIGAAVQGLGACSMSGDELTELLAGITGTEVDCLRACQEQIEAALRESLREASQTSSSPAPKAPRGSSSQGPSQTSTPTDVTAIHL
Outline: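 Compound dose responses pre-incubated 30 min with enzyme mix in 50 mM HEPES pH 7.5, 10 mM MgCl2, 2 mM TCEP, 0.05% BGG, 0.01% Brij 35. Reaction quenched with EDTA (15 mM final); Eu-anti-phospho-4E-BP1 TR-FRET detection, acceptor/donor ratio. Ki derived by Morrison equation.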

[7] = Table O, enzymatic assay, read-out: CDK2 Ki
[8] = Table R, enzymatic assay, read-out: CDK2 Ki
[9] = Table S, enzymatic assay, read-out: CDK2 Ki
[10] = SKOV-3/OVISE fold-selectivity cellular assay data

SMILES: CC(C)(C)NC(=O)O[C@@H]1CC[C@H](c2cc(Nc3ccccn3)n[nH]2)C1 [Example 4G, (1R,3S)-3-(3-(pyridin-2-ylamino)-1H-pyrazol-5-yl)cyclopentyl tert-butylcarbamate]
- Ki [1]: 0.075 µM
- FS CDK1/CDK2 increased over Comparator D, (+) sign ([1]; Table R): (+)
- FS CDK1/CDK2 ([1]; Table R): 44
- FS CDK1/CDK2 ([1]; Table S): 44
- Ki [2, 7]: 0.0017 µM
- FS CDK1/CDK2 ([2]; Table O): 44
- FS CDK4/CDK2 ([2]; Table O): 16
- Ki [2, 8]: 0.0017 µM
- CDK2 Ki fold change in potency versus Comparator D ([2]; Table R): 1.6 fold
- Ki [2, 9]: 0.0017 µM
- CDK2 Ki fold change in potency versus Comparator E ([2]; Table S): 0.3 fold
- IC50 [3]: 0.24 µM
- IC50 ([4]; SK-OV-3, Table O): 1.5 µM
- IC50 ([4]; SK-OV-3, Table R): 1.5 µM
- IC50 ([4]; SK-OV-3, Table S): 1.5 µM
- FS SKOV-3/OVISE increased over Comparator D, (+) sign ([4]; Table R): (+)
- FS SKOV-3/OVISE ([4]; Table R, cellular IC50 ratio): 6.3
- FS SKOV-3/OVISE ([4]; Table S, cellular IC50 ratio): 6.3
- IC50 [5]: 0.24 µM
- FS SKOV-3/OVISE [5]: 6.3
- FS p-H3/OVISE [5]: 1.0
- CDK2 OVISE IC50 fold change in potency versus Comparator D [5]: 16 fold
- CDK2 OVISE IC50 fold change in potency versus Comparator E [5]: 0.7 fold
- Ki [6]: 0.027 µM
- FS CDK4/CDK2 increased over Comparator D, (+) sign ([6]; Table R): (+)
- FS CDK4/CDK2 ([6]; Table R): 16
- FS CDK4/CDK2 ([6]; Table S): 16

SMILES: CC(C)(C)NC(=O)O[C@@H]1CC[C@H](c2cc(Nc3ccnnc3)n[nH]2)C1 [Example 4K, (1R,3S)-3-(3-(pyridazin-4-ylamino)-1H-pyrazol-5-yl)cyclopentyl tert-butylcarbamate]
- Ki [1]: 0.027 µM
- FS CDK1/CDK2 increased over Comparator D, (+) sign ([1]; Table R): (+)
- FS CDK1/CDK2 ([1]; Table R): 54
- FS CDK1/CDK2 ([1]; Table S): 54
- FS CDK1/CDK2 ([1]; Table P): 54
- Ki [2, 7]: 0.00045 µM
- FS CDK1/CDK2 ([2]; Table O): 54
- FS CDK4/CDK2 ([2]; Table O): 104
- Ki [2, 8]: 0.00045 µM
- CDK2 Ki fold change in potency versus Comparator D ([2]; Table R): 6 fold
- Ki [2, 9]: 0.00045 µM
- CDK2 Ki fold change in potency versus Comparator E ([2]; Table S): 1.2 fold
- Ki ([2]; enzymatic assay, Table P, read-out: CDK2 Ki): 0.00045 µM
- CDK2 Ki fold potency relative to Comparator A ([2]; first bracket in CDK2 Ki cell, Table P): 0.4 fold
- Ki ([2]; read-out: CDK2 activity / potency (enzymatic assay)): ≤ 0.001 µM and 0.00045 µM
- CDK2 Ki fold potency relative to Comparator B ([2]; second bracket in CDK2 Ki cell, Table P): 2 fold
- pH3/OVISE fold selectivity (CDK1 over CDK2, cellular assay data) [3]: 2.1 fold
- IC50 [3]: 0.16 µM
- FS p-H3/OVISE compared with Comparator A ([3]; first sign in cell, Table P): (+)
- FS p-H3/OVISE ([3]; fold selectivity, cellular IC50 ratio (CDK1 over CDK2), Table P): 2.1
- FS p-H3/OVISE compared with Comparator B ([3]; second sign in cell, Table P): (+)
- IC50 ([4]; SK-OV-3, Table O): 5.5 µM
- CDK2 selectivity over CDK4/6 compared with Comparators A and B [4, 10]: at least three times more CDK2 selective over CDK4/6
- selectivity for CDK2 over CDK4 compared with Comparator E [4, 10]: increase in selectivity for CDK2 over CDK4
- FS SKOV-3/OVISE increased over Comparator D, (+) sign ([4]; Table R): (+)
- FS SKOV-3/OVISE ([4]; Table R, cellular IC50 ratio): 71
- FS SKOV-3/OVISE increased over Comparator E, (+) sign ([4]; Table S): (+)
- FS SKOV-3/OVISE ([4]; Table S, cellular IC50 ratio): 71
- FS SKOV-3/OVISE compared with Comparator A ([4]; first sign in cell, Table P): (+)
- FS SKOV-3/OVISE ([4]; cellular IC50 ratio (CDK4/6 over CDK2), Table P): 71
- FS SKOV-3/OVISE compared with Comparator B ([4]; second sign in cell, Table P): (+)
- CDK2 cell potency compared with Comparator E ([5]; CDK2 OVISE cellular assay data): more potent CDK2 cell inhibitors compared to Comparator E
- IC50 [5]: 0.078 µM
- FS SKOV-3/OVISE [5]: 71
- FS p-H3/OVISE [5]: 2.1
- CDK2 OVISE IC50 fold change in potency versus Comparator D [5]: 49 fold
- CDK2 OVISE IC50 fold change in potency versus Comparator E [5]: 2.2 fold
- CDK2 OVISE IC50 fold potency relative to Comparator A ([5]; first bracket in OVISE IC50 cell, Table P): 0.5 fold
- CDK2 OVISE IC50 fold potency relative to Comparator B ([5]; second bracket in OVISE IC50 cell, Table P): 1.8 fold
- Ki [6]: 0.052 µM
- FS CDK4/CDK2 increased over Comparator D, (+) sign ([6]; Table R): (+)
- FS CDK4/CDK2 increased over Comparator E, (+) sign ([6]; Table S): (+)

- Ki [1]: 0.00078 µM
- Ki [2, 7]: < 0.0001 µM
- FS CDK1/CDK2 ([2]; Table O): >12
- FS CDK4/CDK2 ([2]; Table O): >120
- IC50 [3]: 0.0087 µM
- IC50 ([4]; SK-OV-3, Table O): 0.39 µM
- Ki [6]: 0.0074 µM
SMILES: CN(C(=O)O[C@@H]1CC[C@H](c2cc(Nc3ccc(=O)n(C)n3)n[nH]2)C1)C(C)(C)C [Example 6B, (1R,3S)-3-(3-((1-methyl-6-oxo-1,6-dihydropyridazin-3-yl)amino)-1H-pyrazol-5-yl)cyclopentyl tert-butyl(methyl)carbamate]
- IC50 [5]: 0.027 µM
- FS SKOV-3/OVISE [5]: 14
- FS p-H3/OVISE [5]: 0.32

- Ki [1]: 0.19 µM
- Ki [2, 7]: 0.002 µM
- FS CDK1/CDK2 ([2]; Table O): 95
- FS CDK4/CDK2 ([2]; Table O): 200
- IC50 [3]: 0.18 µM
- IC50 ([4]; SK-OV-3, Table O): 9.1 µM
- Ki [6]: 0.4 µM
SMILES: CNC(=O)c1cc(C)c(Nc2cc([C@H]3CC[C@@H](OC(=O)NC45CC(C4)C5)C3)[nH]n2)cn1 [Example 9C, (1R,3S)-3-(3-((4-methyl-6-(methylcarbamoyl)pyridin-3-yl)amino)-1H-pyrazol-5-yl)cyclopentyl bicyclo[1.1.1]pentan-1-ylcarbamate]
- IC50 [5]: 0.18 µM
- FS SKOV-3/OVISE [5]: 51
- FS p-H3/OVISE [5]: 1.0
